Series [1] is described as follows: Accelerated deterioration (xenon weather meter X25, 120 hours) of photochromic laminate prepared by coating method. The class given is physicochemical. The following applies: 0.25 mmol per 100 g monomers, A120/A0×100 after 120 hours xenon weather meter. The text has this:
(§1) First, the photochromic compound obtained in Example 1, a photoinitiator, and a polymerizable compound were mixed to obtain a curable composition.
(§2) Polyethylene glycol dimethacrylate (average molecular weight: 736): 42 parts by mass • Polyethylene glycol dimethacrylate (average molecular weight: 536): 12 parts by mass • Trimethylolpropane trimethacrylate: 38 parts by mass γ-methacryloyloxypropyl trimethoxysilane: 2 parts by mass Glycidyl methacrylate: 1 part by mass
(§3) Note that the photochromic compound was added to the curable composition so that the amount of the photochromic compound was 0.25 mmol based on 100 g of the total amount of the radical-polymerizable monomers.
(§4) Phenylbis(2,4,6-trimethylbenzoyl)phosphine oxide (photoinitiator: Omnirad 819): 0.3 parts by mass Ethylene bis(oxyethylene) bis[3-(5-tert-butyl-4-hydroxy-m-tolyl)propionate] (stabilizer, Irganox 245): 1 part by mass Bis(1,2,2,6,6-pentamethyl-4-piperidyl) sebacate: 3 parts by mass Leveling agent (L7001) manufactured by Dow Corning Toray Co.,Ltd.: 0.1 part by mass
(§5) First, a thiourethane-based plastic lens having a central thickness of 2 mm and a refractive index of 1.60 was prepared as the optical substrate. Note that this thiourethane-based plastic lens was pre-treated by alkaline etching with a 10% sodium hydroxide aqueous solution at 50°C for 5 minutes, followed by sufficient washing with distilled water.
(§6) A surface of the above-described plastic lens was coated with a moisture-curable primer (product name: TR-SC-P, manufactured by Tokuyama Corporation) at a rotation frequency of 70 rpm for 15 seconds, followed by 1000 rpm for 10 seconds, using a spin coater (1H-DX2, manufactured by MIKASA CO., LTD), Subsequently, about 2 g of the photochromic curable composition obtained above was spin-coated at a rotation frequency of 60 rpm for 40 seconds, followed by 600 rpm for 10 to 20 seconds, to form a photochromic coating layer with a film thickness of 40 µm.
(§7) The lens with the surface coated with the photochromic curable composition (photochromic coating layer) was irradiated with light using a metal halide lamp with an output power of 200 mW/cm^2 in a nitrogen gas atmosphere for 90 seconds to cure the coating film. Subsequently, the lens was further heated at 110°C for 1 hour to prepare a photochromic laminate having a photochromic layer.
(§8) • [1] Maximum Absorption Wavelength (λmax): The maximum absorption wavelength after color development, measured using a spectrophotometer (instantaneous multichannel photodetector MCPD3000) manufactured by Otsuka Electronics Co., Ltd. was used as an indicator for the color tone during the color development. • [2] 23°C Color Optical Density (A23): A difference between an absorbancy measured after light irradiation at 23°C for 300 seconds {ε(300)} and an absorbancy without light irradiation ε(0) at the maximum absorption wavelength was used as an indicator for the color optical density. […] 23°C color fading half-life [τ1/2 (sec.)]: A time required for the absorbancy of the sample at the maximum absorption wavelength to decrease to 1/2 of {ε(300)-ε(0)} when the light irradiation was terminated after the light irradiation at 23°C for 300 seconds, was used as an indicator for the color fading speed. The shorter this time, the higher the color fading speed. • [4] Residual rate (A120/A0×100): The obtained photochromic plastic lens was subjected to accelerated deterioration using a xenon weather meter X25 manufactured by Suga Test Instruments Co., Ltd. for 120 hours. Subsequently, the color optical density was evaluated before and after the test, then a color optical density before the test (A0) and a color optical density after the test (A120) were measured, and a ratio (A120/A0) was defined as a residual rate. The residual rate was used as an indicator for a color developing durability. The higher the residual rate, the higher the color developing durability. […]

Series [2] can be described thus: Photochromic properties of photochromic laminate (plastic lens) prepared by coating method. The class given is physicochemical. Particulars: 40 µm photochromic layer on thiourethane lens, 0.25 mmol compound per 100 g monomers, after color development.
Excerpt: as §1, §2, §3, §4, §5, §6, §7
In the same manner as in Example 26, photochromic laminates were prepared using the photochromic compounds obtained in Examples 2 to 25.
as §8, with “durability.” for “durability. The higher the residual rate, the higher the color developing durability.”

For the compound `CCCc1ccc(C2(c3ccc(N(C)c4ccccc4)cc3)C=Cc3c4c(c5cc(OC)ccc5c3O2)-c2ccccc2C42CCCCCCC2)cc1` (centres unmarked) [Example 61], the Residual rate in series [1] is reported as 59%; in series [1] (listed as Formula (122)), 57%. Besides, the Maximum absorption wavelength in series [2] is listed as 487 nm; in series [2] (listed as Formula (122)), 564 nm.
For the compound `COc1ccc(C2(c3ccc(N(c4ccccc4)C4CCCCC4)cc3)C=Cc3c4c(c5cc(OC)c(OC)cc5c3O2)-c2ccccc2C4(CCCCF)CCCCF)cc1` (centres unmarked) [Example 6], the Residual rate in series [1] was determined as 70%; in series [1] (listed as Formula (53)) it was 63%. Further, the results for the Maximum absorption wavelength in series [2] and in series [2] (listed as Formula (53)) were 481 nm and 593 nm, respectively.
Turning to `CCCOc1ccc(C2(c3ccc(N(CC(F)(F)F)c4ccccc4)cc3)C=Cc3c4c(c5ccccc5c3O2)-c2ccccc2C42CCCCCCC2)cc1` (centres unmarked) [Example 9], the Residual rate in series [1] worked out at 62%. For the same compound, the Maximum absorption wavelength in series [2] is 578 nm.
On to `COc1cc2c3c(c4c(c2cc1OC)-c1ccc(-c2ccc(C(F)(F)F)cc2)cc1C4(CCCC(F)(F)F)CCCC(F)(F)F)C=CC(c1ccc(Oc2ccccc2)cc1)(c1ccc(N(C)c2ccccc2)cc1)O3` (centres unmarked) [Example 13], for which the Residual rate worked out at 65% in series [1] and 60% in series [1] (listed as Formula (69)). For the same compound, the Maximum absorption wavelength in series [2] came to 489 nm; in series [2] (listed as Formula (69)), 605 nm.
In the case of `CCCc1ccc(C2(c3ccc(N(C)c4ccccc4)cc3)C=Cc3c4c(c5cc(-c6ccc(C)cc6)c(C)cc5c3O2)-c2ccccc2C4(CCOC)CCOC)cc1` (centres unmarked) [Example 18], the Residual rate in series [1] turned out to be 60%. Further, the Maximum absorption wavelength in series [2] is 587 nm.
Take `COc1ccc(C2(c3ccc(N(C)c4ccccc4)cc3)C=Cc3c4c(c5cc6c(cc5c3O2)SC(C)(C)S6)-c2ccc(-c3ccc(F)c(F)c3F)cc2C42CCCCCCCCCCC2)cc1` (centres unmarked) [Example 52]: the values for the Residual rate in series [1] and in series [1] (listed as Formula (93)) were 58% and 56%, respectively. The Maximum absorption wavelength amounted to 488 nm in series [2] and 604 nm in series [2] (listed as Formula (93)).
For the compound `COc1ccc(C2(c3ccc(N(C)c4ccccc4)cc3)C=Cc3c4c(c5cc(-c6c(OC)cc(OC)cc6OC)c(OC)cc5c3O2)-c2ccc(C)cc2C4(CCCSC)CCCSC)cc1` (centres unmarked) [Example 12], the Residual rate in series [1] was found to be 65%. For the same compound, the Maximum absorption wavelength in series [2] is reported as 478 nm; in series [2] (listed as Formula (66)), 614 nm.
In the case of `COCCCCC1(CCCCOC)c2cc(-c3ccccc3)ccc2-c2c1c1c(c3cc(OC)c(N4CCS(=O)(=O)CC4)cc23)OC(c2ccc(OCCOCCOC)cc2)(c2ccc(N(C)c3ccccc3)cc2)C=C1` (centres unmarked) [Example 58], the Residual rate in series [1] came out at 60%. The Maximum absorption wavelength in series [2] was found to be 498 nm; in series [2] (listed as Formula (114)) it was 617 nm.
For the compound `CCCC1(CCC)c2ccccc2-c2c1c1c(c3cc(OC)c(N(c4ccccc4)c4ccccc4)cc23)OC(c2ccc(C)cc2)(c2ccc(N(C)c3ccccc3)cc2)C=C1` (centres unmarked) [Example 22], the Residual rate in series [1] came out at 68%. In series [2], this compound registered a Maximum absorption wavelength of 530 nm.
The compound `COc1ccc(C2(c3ccc(N(C)c4ccccc4)cc3)C=Cc3c4c(c5cc(-c6ccc(N7CCSCC7)cc6)c(OC)cc5c3O2)-c2ccc(OC)cc2C4(CCC(F)(F)F)CCC(F)(F)F)cc1` (centres unmarked) [Example 54] showed a Residual rate in series [1] of 67%. In addition, the results for the Maximum absorption wavelength in series [2] and in series [2] (listed as Formula (96)) were 501 nm and 628 nm, respectively.
As to `CCCCC1(CCCC)c2cc([Si](C)(c3ccccc3)c3ccccc3)ccc2-c2c1c1c(c3cc(OC)c(C)cc23)OC(c2ccc(C)cc2)(c2ccc(N(C)c3ccccc3)cc2)C=C1` (centres unmarked) [Example 15], in series [1], the Residual rate is 58%. Also, the Maximum absorption wavelength was determined as 487 nm in series [2] and 602 nm in series [2] (listed as Formula (75)).
`COCCCC1(CCCOC)c2cc(-c3ccc(C(C)(C)C)cc3)ccc2-c2c1c1c(c3cc(OC)c(OC)cc23)OC(c2ccc(N(CCOC)c3ccccc3)cc2)(c2ccc3c(c2)OCCO3)C=C1` (centres unmarked) [Example 20]: the Residual rate is given as 67% in series [1] and 63% in series [1] (listed as Formula (81)). Further, the Maximum absorption wavelength came to 486 nm in series [2] and 608 nm in series [2] (listed as Formula (81)).
As to `CCCCCCC1(CCCCCC)c2ccccc2-c2c1c1c(c3cc(OC)ccc23)OC(c2ccc(F)cc2)(c2ccc(N(CC)c3ccccc3)cc2)C=C1` (centres unmarked) [Example 4], the Residual rate in series [1] is listed as 57%. Besides, the values for the Maximum absorption wavelength in series [2] and in series [2] (listed as Formula (48)) were 489 nm and 601 nm, respectively.
Regarding `CCCOc1ccc(C2(c3ccc(N(CC(F)(F)F)c4ccccc4)cc3)C=Cc3c4c(c5cc(-c6ccc(OC)cc6)c(C)cc5c3O2)-c2ccc(C)cc2C4(CC)CC)cc1` (centres unmarked) [Example 17], the Residual rate in series [1] stood at 56%. Further, the Maximum absorption wavelength is listed as 484 nm in series [2] and 592 nm in series [2] (listed as Formula (78)).

The values are drawn from EP4692072A1, “PHOTOCHROMIC COMPOUND, PROPARGYL ALCOHOL COMPOUND, CURABLE COMPOSITION, OPTICAL ARTICLE, LENS, AND SPECTACLES” (TOKUYAMA CORPORATION, priority 2023, dated 2024).
